Measurements reported in patent publication US20250129021A1, “SMALL MOLECULE PROTEIN SYNTHESIS MODULATORS” (Interdict Bio, Inc., priority 2023, published 2025).

What was measured:
Assay type in all cases: biochemical
MCL-1 = assay: In vitro transcription-translation (IVTT) assay, MCL-1 reporter; conditions: IVTT assay, HeLa S3 lysate, sfGFP/mCherry ratio; read-out: MCL1 IC50
Method in brief: (§1)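 Reporter: mCherry, P2A, then 3×FLAG-target peptide-sfGFP fusion, IRES-initiated; HeLa S3 lysate IVTT; cpd dilutions 30 μM−0.1 μM half-log in 100% DMSO (dilution-plate conc); DNA added last; 2 h, 30° C; PBS quench.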

CCNTB1 = assay: In vitro transcription-translation (IVTT) assay, CCNTB1 reporter; conditions: HeLa S3 lysate, sfGFP/mCherry ratio
Protocol: In vitro transcription-translation assay setup: Each assay includes a master mix containing lysate and shared components, a 96-well plate containing compound titrations for testing, a 96-well DNA plate with reporter constructs to be tested, 96-well skirted PCR plates, and 96-well flat-bottom, black, fluorescent assay plates. Reaction materials setup: (A) Master mix—15 mL conical tube (3 mL of HeLa S3 Lysate described above; 0.6 mL of ThermoFisher Accessory Proteins (#88882); 1.2 ml of ThermoFisher Reaction Mix (#88882); 0.54 mL of nuclease-free Water); (B) 96-Well Master Mix+Compound Plate (Half-log dilutions (30 μM−0.1 μM) of 4 compounds of interest are prepared in 100% DMSO); 96-Well DNA Plate (Five DNA constructs are plated into single columns within the plate. Row 1 of the column contains nuclease free H2O, all other wells contain 110 ng/μL plasmid DNA). Reactions are started by mixing 155 μL of master mix and 3.5 μL of compound serial dilutions, then 9.1 μL of master mix+compound mixture is aliquoted across 5 96-well plates. Reactions begin with final addition of 2 μL of DNA for a 11.1 μL reaction volume in each well. The entire plate is sealed, and incubated for 2 hrs at 30° C. After 2 hrs, quench the assay using 45 μL of PBS, and transfer 50 μL to a flat-bottom black microplate Quantify the sfGFP and mCherry signals from each well on each plate, taking 3 reads of each plate, and perform data analysis below.
In vitro transcription-translation assay data analysis: Each plate is read three times in channels for both sfGFP and mCherry signals. The average signal across these 3 reads is then calculated for further analysis. Control wells containing no DNA reporter are subtracted from reporter wells in the same column to remove auto-fluorescence of the lysate. Then, the ratio of sfGFP/mCherry is calculated per well, and these ratios are averaged across the triplicate experiments on the same plate. Finally, the ratio of each titration concentration is normalized to the no drug control to create the normalized stalling metric. The error on this measurement is determined by propagating error through the averaging and normalization steps. Values are plotted and fit for IC50 determination for each test sequence and titration of compound.

MYC = assay: In vitro transcription-translation (IVTT) assay, MYC reporter; conditions: IVTT assay, HeLa S3 lysate, MYC reporter, normalized sfGFP/mCherry ratio; half-log dilutions 30 μM-0.1 μM, 2 hrs at 30° C.
Method in brief: as §1

CCND1 = assay: In vitro transcription-translation (IVTT) assay, CCND1 reporter; conditions: IVTT assay, HeLa S3 lysate, sfGFP/mCherry ratio
Method in brief: as §1

Compound	IC50 (MCL-1)	IC50 (CCNTB1)	IC50 (CCND1)	IC50 (MYC)
O=C(NCc1ccnc(N2CCC2)c1)O[C@@H]1[C@@H](O)CN[C@@H]1Cc1ccc(-c2ccc(C(F)(F)F)cc2)cc1 [V192071, (2R,3S,4S)-4-hydroxy-2-((4′-(trifluoromethyl)-[1,1′-biphenyl]-4-yl)methyl)pyrrolidin-3-yl ((2-(azetidin-1-yl)pyridin-4-yl)methyl)carbamate]	20 to 30 µM	20 to 30 µM	> 30 µM	20 to 30 µM
O=C(NCCC1CCNCC1)O[C@@H]1[C@@H](O)CN[C@@H]1Cc1ccc(-c2ccc(C(F)(F)F)cc2)cc1 [V192052, (2R,3S,4S)-4-hydroxy-2-{[4′-(trifluoromethyl)-[1,1′-biphenyl]-4-yl]methyl}pyrrolidin-3-yl N-[2-(piperidin-4-yl)ethyl]carbamate]	> 30 µM	> 30 µM	> 30 µM	> 30 µM
O=C(NCc1cccc(F)c1)O[C@@H]1[C@@H](O)CN[C@@H]1Cc1ccc(-c2ccc(Cl)s2)cc1 [V192156, (2R,3S,4S)-2-{[4-(5-chlorothiophen-2-yl)phenyl]methyl}-4-hydroxypyrrolidin-3-yl N-[(3-fluorophenyl)methyl]carbamate]	> 30 µM	> 30 µM	> 30 µM	> 30 µM
O=C(NCc1cccc(F)c1)O[C@@H]1[C@@H](O)CN[C@@H]1Cc1cccnc1 [V190519, (2R,3S,4S)-4-hydroxy-2-(pyridin-3-ylmethyl)pyrrolidin-3-yl N-[(3-fluorophenyl)methyl]carbamate]	> 30 µM	20 to 30 µM	> 30 µM	20 to 30 µM
O=C(NCc1ccccc1)O[C@@H]1[C@@H](O)CN[C@@H]1Cn1cccn1 [V188209, (2R,3S,4S)-4-hydroxy-2-(pyrazol-1-ylmethyl)pyrrolidin-3-yl N-benzylcarbamate]	> 30 µM	> 30 µM	> 30 µM	> 30 µM
COc1ccc(C[C@H]2NC[C@H](O)[C@H]2OC(=O)N[C@@H](C)c2ccccc2)cc1 [V191971, (2R,3S,4S)-4-hydroxy-2-[(4-methoxyphenyl)methyl]pyrrolidin-3-yl N-[(1S)-1-phenylethyl]carbamate]	20 to 30 µM	10 to 20 µM	> 30 µM	10 to 20 µM
O=C(NCCC1CCNCC1)O[C@@H]1[C@@H](O)CN[C@@H]1Cc1ccc(-c2ccccc2)cc1 [V192050, (2R,3S,4S)-2-{[1,1′-biphenyl]-4-ylmethyl}-4-hydroxypyrrolidin-3-yl N-[2-(piperidin-4-yl)ethyl]carbamate]	10 to 20 µM	10 to 20 µM	> 30 µM	10 to 20 µM
COc1ccc(C[C@H]2NC[C@H](O)[C@H]2OC(=O)NCC[C@H]2CCCN2C)cc1 [V192042, (2R,3S,4S)-4-hydroxy-2-[(4-methoxyphenyl)methyl]pyrrolidin-3-yl N-{2-[(2R)-1-methylpyrrolidin-2-yl]ethyl}carbamate]	> 30 µM	20 to 30 µM	> 30 µM	> 30 µM
O=C(NCCC1CCNCC1)O[C@@H]1[C@@H](O)CN[C@@H]1Cc1ccc(-c2ccc3c(c2)CC(F)(F)C3)cc1 [V192053, (2R,3S,4S)-2-{[4-(2,2-difluoro-1,3-dihydroinden-5-yl)phenyl]methyl}-4-hydroxypyrrolidin-3-yl N-[2-(piperidin-4-yl)ethyl]carbamate]	20 to 30 µM	10 to 20 µM	> 30 µM	> 30 µM
COc1ccc(C[C@H]2NC[C@H](O)[C@H]2OC(=O)NCC[C@]2(C)CCCN2)cc1 [V191921, (2R,3S,4S)-4-hydroxy-2-[(4-methoxyphenyl)methyl]pyrrolidin-3-yl N-{2-[(2S)-2-methylpyrrolidin-2-yl]ethyl}carbamate]	< 10 µM	< 10 µM	10 to 20 µM	< 10 µM
COc1ccc(C[C@H]2NC[C@H](O)[C@H]2OC(=O)NCc2ccc(C3(N)CC3)cc2)cc1 [V192069, (2R,3S,4S)-4-hydroxy-2-[(4-methoxyphenyl)methyl]pyrrolidin-3-yl N-{[4-(1-aminocyclopropyl)phenyl]methyl}carbamate]	< 10 µM	< 10 µM	< 10 µM	< 10 µM
COc1ccc(C[C@H]2NC[C@H](O)[C@H]2OC(=O)NCC[C@@]2(C)CCCN2)cc1 [V192041, (2R,3S,4S)-4-hydroxy-2-(4-methoxybenzyl)pyrrolidin-3-yl (2-((R)-2-methylpyrrolidin-2-yl)ethyl)carbamate]	< 10 µM	< 10 µM	10 to 20 µM	< 10 µM
O=C(NCC[C@@H]1CCCN1)O[C@@H]1[C@@H](O)CN[C@@H]1Cc1ccc(-c2ccc(Cl)s2)cc1 [V191891, (2R,3S,4S)-2-{[4-(5-chlorothiophen-2-yl)phenyl]methyl}-4-hydroxypyrrolidin-3-yl N-{2-[(2S)-pyrrolidin-2-yl]ethyl}carbamate]	< 10 µM	< 10 µM	10 to 20 µM	< 10 µM

More lines, main results first:

IC50 (MCL-1)	IC50 (CCNTB1)	IC50 (CCND1)	Compound	IC50 (MYC)
< 10 µM	< 10 µM	10 to 20 µM	COc1ccc(C[C@H]2NC[C@H](O)[C@H]2OC(=O)NCCN2CCCS2(=O)=O)cc1 [V191944, (2R,3S,4S)-4-hydroxy-2-[(4-methoxyphenyl)methyl]pyrrolidin-3-yl N-[2-(1,1-dioxo-1lambda6,2-thiazolidin-2-yl)ethyl]carbamate]	< 10 µM
< 10 µM	< 10 µM	20 to 30 µM	O=C(NCc1ccc2c(c1)CCNC2)O[C@@H]1[C@@H](O)CN[C@@H]1Cc1ccc(-c2ccc3c(c2)CC(F)(F)C3)cc1 [V192060, (2R,3S,4S)-2-{[4-(2,2-difluoro-1,3-dihydroinden-5-yl)phenyl]methyl}-4-hydroxypyrrolidin-3-yl N-(1,2,3,4-tetrahydroisoquinolin-6-ylmethyl)carbamate]	< 10 µM
< 10 µM	< 10 µM	< 10 µM	COc1ccc(C[C@H]2NC[C@H](O)[C@H]2OC(=O)NCc2ccnc(N3CCC3)n2)cc1 [V192073, (2R,3S,4S)-4-hydroxy-2-[(4-methoxyphenyl)methyl]pyrrolidin-3-yl N-{[2-(azetidin-1-yl)pyrimidin-4-yl]methyl}carbamate]	< 10 µM
< 10 µM	< 10 µM	< 10 µM	O=C(NCc1ccc2c(c1)CCNC2)O[C@@H]1[C@@H](O)CN[C@@H]1Cc1ccc(-c2cncs2)cc1 [V192109, (2R,3S,4S)-4-hydroxy-2-(4-(thiazol-5-yl)benzyl)pyrrolidin-3-yl ((1,2,3,4-tetrahydroisoquinolin-6-yl)methyl)carbamate]	< 10 µM
< 10 µM	< 10 µM	< 10 µM	O=C(NCC1CC1)O[C@@H]1[C@@H](O)CN[C@@H]1Cc1ccc(-c2cnco2)cc1 [V192262, (2R,3S,4S)-4-hydroxy-2-{[4-(1,3-oxazol-5-yl)phenyl]methyl}pyrrolidin-3-yl N-(cyclopropylmethyl)carbamate]	< 10 µM
< 10 µM	< 10 µM	10 to 20 µM	O=C(NCC[C@@H]1CCCN1)O[C@@H]1[C@@H](O)CN[C@@H]1Cc1ccc(-c2ccc3c(c2)CC(F)(F)C3)cc1 [V191961, (2R,3S,4S)-2-{[4-(2,2-difluoro-1,3-dihydroinden-5-yl)phenyl]methyl}-4-hydroxypyrrolidin-3-yl N-{2-[(2S)-pyrrolidin-2-yl]ethyl}carbamate]	10 to 20 µM
< 10 µM	10 to 20 µM	< 10 µM	COc1ccc(C[C@H]2NC[C@H](O)[C@H]2OC(=O)NCc2ccnc(N3CC(O)C3)c2)cc1 [V192067, (2R,3S,4S)-4-hydroxy-2-(4-methoxybenzyl)pyrrolidin-3-yl ((2-(3-hydroxyazetidin-1-yl)pyridin-4-yl)methyl)carbamate]	< 10 µM
< 10 µM	< 10 µM	< 10 µM	O=C(NCc1cccc(-n2ccnc2)c1)O[C@@H]1[C@@H](O)CN[C@@H]1Cc1ccc(-c2cnco2)cc1 [V192167, (2R,3S,4S)-4-hydroxy-2-{[4-(1,3-oxazol-5-yl)phenyl]methyl}pyrrolidin-3-yl N-{[3-(imidazol-1-yl)phenyl]methyl}carbamate]	< 10 µM
